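Following 48 hours of exposure in 96-well plates, responses at five concentrations were used to interpolate endpoints linearly. Abbreviation: GI50, concentration required for 50% inhibition of growth. TGI: concentration producing complete growth inhibition.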 Bounds are passed on as bounds.

The first experiment concerns MOLT-4 leukemia. In words: NCI tumour cell line growth inhibition, 48 h.
Turning to `COc1ccc2c(c1)CC[C@@H]1[C@@H]2CC[C@]2(C)C(=O)C3(CCCCC3)C[C@@H]12`, the GI50 is more than 100 µM and the TGI was more than 100 µM.

Regarding `NS(=O)(=O)c1cc2c(cc1Cl)NC(C(=O)c1cc(=O)c3ccc(O)cc3o1)=NS2(=O)=O`, the TGI is more than 100 µM.

Regarding `O=C(NO)c1ccc([N+](=O)[O-])cc1`, the TGI is more than 100 µM.

For another experiment, the system named is LOX IMVI melanoma. In words: NCI tumour cell line growth inhibition, 48 h.
`Fc1c(F)c(C(F)(F)F)c(F)c(F)c1N/N=C\c1c[nH]c2ccccc12` had a TGI of 12.1 µM.

`COc1cc2c(/C=C3/C(=O)Nc4ccc(Cl)cc43)c(Cl)n(Cc3ccccc3)c2cc1C`: the TGI was more than 100 µM.

Take `O=C(O)C(=C\c1ccc2c(c1)OCO2)/C(=C/c1ccc2c(c1)OCO2)C(=O)O`: the TGI is more than 100 µM.

For `N#CC(C#N)=CN1CCN(C(=O)c2ccco2)C1=S`, the GI50 is 3.34 µM and the TGI is more than 100 µM.

In the case of `COc1ccc2c(c1)CC[C@@H]1[C@@H]2CC[C@]2(C)C(=O)C3(CCCCC3)C[C@@H]12`, the GI50 is more than 100 µM and the TGI was more than 100 µM.

`NS(=O)(=O)c1cc2c(cc1Cl)NC(C(=O)c1cc(=O)c3ccc(O)cc3o1)=NS2(=O)=O`: the TGI is more than 100 µM.

Consider `CC(=O)OCC(=O)[C@@]1(O)CC[C@H]2[C@@H]3CCC4=CC(=O)[C@H](C)C[C@]4(C)[C@H]3[C@@H](O)C[C@@]21C`, for which the TGI is more than 100 µM.

Consider `O=C(NO)c1ccc([N+](=O)[O-])cc1`, for which the TGI is more than 100 µM.

The subject of another experiment is EKVX NSCLC. The experiment is described as follows: NCI tumour cell line growth inhibition, 48 h.
The molecule `Fc1c(F)c(C(F)(F)F)c(F)c(F)c1N/N=C\c1c[nH]c2ccccc12` returned a TGI of 11.9 µM.

Turning to `COc1ccc(-c2ccc(-c3ccc(C(=N)N)nc3)s2)cc1`, the GI50 is 1.7 µM and the TGI stood at 3.14 µM.

As to `N#CC(C#N)=CN1CCN(C(=O)c2ccco2)C1=S`, the GI50 was 11.9 µM and the TGI amounted to 71.5 µM.

As to `COc1ccc2c(c1)CC[C@@H]1[C@@H]2CC[C@]2(C)C(=O)C3(CCCCC3)C[C@@H]12`, the GI50 is more than 100 µM and the TGI is more than 100 µM.

For `NS(=O)(=O)c1cc2c(cc1Cl)NC(C(=O)c1cc(=O)c3ccc(O)cc3o1)=NS2(=O)=O`, the TGI is more than 100 µM.

Molecule `CC(=O)OCC(=O)[C@@]1(O)CC[C@H]2[C@@H]3CCC4=CC(=O)[C@H](C)C[C@]4(C)[C@H]3[C@@H](O)C[C@@]21C` displayed a TGI of more than 100 µM.

`O=C(NO)c1ccc([N+](=O)[O-])cc1` had a TGI of more than 100 µM.

For `Cc1c(C#N)c2nnn(C)c(=O)n2c1-c1ccccc1`, the TGI is more than 100 µM.

Another experiment relates to SW-620 colon. The experiment is described as follows: NCI tumour cell line growth inhibition, 48 h.
With `Fc1c(F)c(C(F)(F)F)c(F)c(F)c1N/N=C\c1c[nH]c2ccccc12`, the TGI came to 12.5 µM.

Molecule `COc1cc2c(/C=C3/C(=O)Nc4ccc(Cl)cc43)c(Cl)n(Cc3ccccc3)c2cc1C` showed a TGI of more than 100 µM.

The molecule `O=C(O)C(=C\c1ccc2c(c1)OCO2)/C(=C/c1ccc2c(c1)OCO2)C(=O)O` came in with a TGI of more than 100 µM.

Turning to `COc1ccc(-c2ccc(-c3ccc(C(=N)N)nc3)s2)cc1`, the GI50 is 0.43 µM and the TGI was found to be 1.7 µM.

Turning to `N#CC(C#N)=CN1CCN(C(=O)c2ccco2)C1=S`, the GI50 is 5.62 µM and the TGI is more than 100 µM.

For the molecule `COc1ccc2c(c1)CC[C@@H]1[C@@H]2CC[C@]2(C)C(=O)C3(CCCCC3)C[C@@H]12`, the GI50 is more than 100 µM and the TGI is more than 100 µM.

In the case of `NS(=O)(=O)c1cc2c(cc1Cl)NC(C(=O)c1cc(=O)c3ccc(O)cc3o1)=NS2(=O)=O`, the TGI is more than 100 µM.

On to `CC(=O)OCC(=O)[C@@]1(O)CC[C@H]2[C@@H]3CCC4=CC(=O)[C@H](C)C[C@]4(C)[C@H]3[C@@H](O)C[C@@]21C`, for which the TGI is more than 100 µM.

On to `O=C(NO)c1ccc([N+](=O)[O-])cc1`, for which the TGI is more than 100 µM.

In the case of `Cc1c(C#N)c2nnn(C)c(=O)n2c1-c1ccccc1`, the TGI is more than 100 µM.

A further experiment has as its system NCI/ADR-RES ovarian. In words: NCI tumour cell line growth inhibition, 48 h.
For the molecule `Fc1c(F)c(C(F)(F)F)c(F)c(F)c1N/N=C\c1c[nH]c2ccccc12`, the TGI worked out at 5.84 µM.

For `COc1cc2c(/C=C3/C(=O)Nc4ccc(Cl)cc43)c(Cl)n(Cc3ccccc3)c2cc1C`, the TGI was more than 100 µM.

For `O=C(O)C(=C\c1ccc2c(c1)OCO2)/C(=C/c1ccc2c(c1)OCO2)C(=O)O`, the TGI was more than 100 µM.

`COc1ccc(-c2ccc(-c3ccc(C(=N)N)nc3)s2)cc1`: the GI50 is 1.94 µM and the TGI came to 3.75 µM.

On to `COc1ccc2c(c1)CC[C@@H]1[C@@H]2CC[C@]2(C)C(=O)C3(CCCCC3)C[C@@H]12`, for which the GI50 is more than 100 µM and the TGI is more than 100 µM.

`Cc1c(C#N)c2nnn(C)c(=O)n2c1-c1ccccc1` gave a TGI of more than 100 µM.

The next experiment has as its system K-562 leukemia. The experiment is described as follows: NCI tumour cell line growth inhibition, 48 h.
`Fc1c(F)c(C(F)(F)F)c(F)c(F)c1N/N=C\c1c[nH]c2ccccc12`: the TGI worked out at 10.5 µM.

With `COc1cc2c(/C=C3/C(=O)Nc4ccc(Cl)cc43)c(Cl)n(Cc3ccccc3)c2cc1C`, the TGI is more than 100 µM.

`O=C(O)C(=C\c1ccc2c(c1)OCO2)/C(=C/c1ccc2c(c1)OCO2)C(=O)O` displayed a TGI of more than 100 µM.

As for `COc1ccc(-c2ccc(-c3ccc(C(=N)N)nc3)s2)cc1`, the GI50 is 1.09 µM and the TGI was 3.53 µM.

With `N#CC(C#N)=CN1CCN(C(=O)c2ccco2)C1=S`, the GI50 is 6.57 µM and the TGI is more than 100 µM.

Turning to `COc1ccc2c(c1)CC[C@@H]1[C@@H]2CC[C@]2(C)C(=O)C3(CCCCC3)C[C@@H]12`, the GI50 is more than 100 µM and the TGI is more than 100 µM.

For the molecule `NS(=O)(=O)c1cc2c(cc1Cl)NC(C(=O)c1cc(=O)c3ccc(O)cc3o1)=NS2(=O)=O`, the TGI was more than 100 µM.

`CC(=O)OCC(=O)[C@@]1(O)CC[C@H]2[C@@H]3CCC4=CC(=O)[C@H](C)C[C@]4(C)[C@H]3[C@@H](O)C[C@@]21C` yielded a TGI of more than 100 µM.

`O=C(NO)c1ccc([N+](=O)[O-])cc1`: the TGI is more than 100 µM.

The values above are taken from PubChem BioAssay (NCI).
